Reference: US11760984B2, “CRISPR protein inhibitors” (THE BROAD INSTITUTE, INC., priority 2017, dated 2023)

Key:
SpCas9 = SpCas9 (Streptococcus pyogenes serotype M1, UniProt Q99ZW2); assay: Cas9 nuclease activity in EGFP disruption assay (U2OS.eGFP.PEST cells); type: cell-based; design: host or cells: U2OS.eGFP-PEST; details: 10 μM
Description: (§1) Cas9 Nuclease activity in EGFP disruption assay. Approximately 200,000 U2OS.eGFP-PEST cells were nucleofected with 400 ng of SpCas9 (Addgene Plasmid #43861) and 40 ng of sgRNA (pFYF1320 EGFP Site #1, Addgene Plasmid #47511) expressing plasmids along with a Td-tomato-encoding plasmid using the SE Cell Line 4D-Nucleofector™ X Kit (Lonza) according to the manufacturer's protocol. Approximately 20,000 transfected cells/well in 3 replicates were plated in a 96-well plate (Corning® 3904). Cells were allowed to grow in the indicated amount of compound or DMSO for 24 h post transfection. Cells were then fixed using 4% paraformaldehyde and imaged with the HCS NuclearMask™ Blue Stain (Life Technologies) as the nuclear counter-staining agent. Imaging was performed with an IXM 137204 ImageXpress Automated High Content Microscope (Molecular Devices) at 10× magnification under three excitation channels (blue, green and red) with 9 acquiring sites per well. Images were analyzed in the MetaXpress software and data were plotted using GraphPad Prism 6. The Z′-value was calculated following the formula: […]
Cas9 Nuclease activity in EGFP disruption assay. In some embodiments, a quantitative human cell-based reporter assay that enables rapid quantitation of targeted nuclease activities is used to characterize off-target cleavage of CRISPR protein-based RNA guided endonucleases. In this assay, the activities of nucleases targeted to a single integrated EGFP reporter gene can be quantified by assessing loss of fluorescence signal in human U2OS.EGFP cells caused by inactivating frameshift insertion/deletion (indel) mutations introduced by error prone non-homologous end-joining (NHEJ) repair of nuclease-induced double-stranded breaks (DSBs).
as §1, with “Approximately” for “Cas9 Nuclease activity in EGFP disruption assay. Approximately”

dCas9 = assay: dCas9-based transcriptional activation of HBG1 gene in HEK293FT cells (RT-qPCR); type: cell-based; details: for inhibition of HBG1 transcriptional activation: HEK293FT cells, 48 hours
Description: Transcription activation experiments and quantitative RT-PCR analyses. For transcription activation experiments 250,000 cells/well were plated in a 12 well plate. The cells were transiently transfected with a 1:1:1 mass ratio of the dCas9 plasmid, MS2-P65-HSF1 effector plasmid and the sgRNA plasmid targeting the HBG1 gene or an RFP control plasmid. A total of 1.6 μg plasmid DNA was transfected using Lipofectamine 2000 (Life Technologies) according to manufacturer's protocol. Immediately after transfection, the cells were treated with an appropriate dose of the small molecule inhibitors for 48 hours following which the cells were harvested and RNA was extracted using the EZNA Total RNA kit I (Omega) as per manufacturer's instructions. 1 μg total cellular RNA was used to perform reverse transcription using the High-Capacity cDNA Reverse Transcription Kit (Applied Biosystems) or the qScript cDNA Synthesis Kit (QuantaBio). qPCR reactions were performed to quantify RNA expression using the TaqMan probes (Life Technologies, HBG1/HBG2: Hs00361131_g1 and ACTB: Hs01060665_g1) and TaqMan Fast Advanced Master Mix (Life Technologies) in 5 μL multiplexed reactions and 384-well format using the LightCycler 480 Instrument II (Roche). For each sample, six technical replicates were performed. Data were analyzed using the LightCycler 480 software (Roche) by the ΔΔCt method: Ct values for the gene of interest (HBG1) were normalized to Ct values for the housekeeping gene (ACTB) and fold-changes in the expression level of the gene of interest were normalized to RFP-transfected control. The data are reported as mean±S.E.M. for technical replicates.
For transcription activation experiments 250,000 cells/well were plated in a 12 well plate. […] Data were analyzed using the LightCycler 480 software (Roche) by the ΔΔCt method: Ct values for the gene of interest (HBG1) were normalized to Ct values for the housekeeping gene (ACTB) and fold-changes in the expression level of the gene of interest were normalized to RFP-transfected control. […]

Chain of SpCas9 (Q99ZW2 whole entry): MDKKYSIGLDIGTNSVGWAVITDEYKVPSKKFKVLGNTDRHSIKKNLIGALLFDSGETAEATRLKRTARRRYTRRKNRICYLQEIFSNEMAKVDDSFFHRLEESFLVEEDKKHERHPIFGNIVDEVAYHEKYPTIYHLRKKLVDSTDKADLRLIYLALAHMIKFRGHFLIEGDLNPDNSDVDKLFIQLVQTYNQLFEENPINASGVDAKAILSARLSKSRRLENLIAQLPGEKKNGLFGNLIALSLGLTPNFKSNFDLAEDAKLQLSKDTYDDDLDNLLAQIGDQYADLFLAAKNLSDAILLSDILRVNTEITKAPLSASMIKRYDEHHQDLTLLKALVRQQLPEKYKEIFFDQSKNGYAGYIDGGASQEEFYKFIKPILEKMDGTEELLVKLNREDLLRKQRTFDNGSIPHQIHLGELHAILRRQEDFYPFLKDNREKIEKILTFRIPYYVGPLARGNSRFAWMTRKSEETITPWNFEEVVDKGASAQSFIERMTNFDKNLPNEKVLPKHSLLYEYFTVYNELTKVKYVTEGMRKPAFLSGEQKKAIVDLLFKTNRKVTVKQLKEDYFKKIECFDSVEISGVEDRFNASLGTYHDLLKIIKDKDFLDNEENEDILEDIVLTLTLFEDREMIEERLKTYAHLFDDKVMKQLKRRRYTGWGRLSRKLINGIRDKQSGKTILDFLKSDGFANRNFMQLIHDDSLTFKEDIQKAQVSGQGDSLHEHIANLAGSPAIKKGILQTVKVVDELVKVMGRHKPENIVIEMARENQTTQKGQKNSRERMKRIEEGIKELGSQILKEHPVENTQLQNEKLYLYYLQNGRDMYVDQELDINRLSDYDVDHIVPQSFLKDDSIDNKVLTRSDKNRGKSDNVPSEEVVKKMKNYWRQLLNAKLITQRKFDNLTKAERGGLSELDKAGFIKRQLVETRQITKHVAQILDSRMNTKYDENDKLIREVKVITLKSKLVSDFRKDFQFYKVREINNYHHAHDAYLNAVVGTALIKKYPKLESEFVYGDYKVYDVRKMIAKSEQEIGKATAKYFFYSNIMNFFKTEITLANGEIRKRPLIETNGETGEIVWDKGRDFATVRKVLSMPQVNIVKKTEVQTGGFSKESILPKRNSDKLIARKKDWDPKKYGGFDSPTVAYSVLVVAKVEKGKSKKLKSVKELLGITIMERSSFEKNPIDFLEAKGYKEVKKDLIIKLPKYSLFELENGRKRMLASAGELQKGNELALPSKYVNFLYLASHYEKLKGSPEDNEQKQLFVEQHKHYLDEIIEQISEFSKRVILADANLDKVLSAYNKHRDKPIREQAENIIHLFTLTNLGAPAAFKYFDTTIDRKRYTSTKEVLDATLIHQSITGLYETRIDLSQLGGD

With `OC[C@H]1Nc2ccc(-c3cccc(F)c3)cc2[C@H]2[C@@H]1CCN2Cc1ccncc1` [BRD7087, ((3aR,4S,9bR)-8-(3-Fluorophenyl)-1-(pyridin-4-ylmethyl)-2,3,3a,4,5,9b-hexahydro-1H-pyrrolo[3,2-c]quinolin-4-yl)methanol] the inhibition at 10 µM (SpCas9) was 44%, the “inhibition of SpCas9 activity” value (SpCas9) was 44% and the “inhibition of transcriptional activation” value (dCas9; 10 μM, HBG1 gene) was > 60%. The “inhibition of HBG1 transcriptional activation” value (dCas9) was “dose-dependent inhibition”.
In the case of `COc1ccc(-c2ccc3c(c2)[C@H]2[C@H](CCN2Cc2ccncc2)[C@@H](CO)N3)cc1` [BRD5779, ((3aR,4S,9bR)-8-(4-Methoxyphenyl)-1-(pyridin-4-ylmethyl)-2,3,3a,4,5,9b-hexahydro-1H-pyrrolo[3,2-c]quinolin-4-yl)methanol], the “inhibition of HBG1 transcriptional activation” value (dCas9) was “dose-dependent inhibition”.
